# Test results taken from ChEMBL document CHEMBL1130578, “Solid-phase synthesis of a N-carboxyalkyl tripeptide combinatorial library” (Bioorg Med Chem Lett, 1997).
# Biological target: Stromelysin-1 (Homo sapiens, UniProt P08254)
# Assay: Inhibition of matrix metalloprotease-3
# Stromelysin-1, sequence (P08254 whole entry): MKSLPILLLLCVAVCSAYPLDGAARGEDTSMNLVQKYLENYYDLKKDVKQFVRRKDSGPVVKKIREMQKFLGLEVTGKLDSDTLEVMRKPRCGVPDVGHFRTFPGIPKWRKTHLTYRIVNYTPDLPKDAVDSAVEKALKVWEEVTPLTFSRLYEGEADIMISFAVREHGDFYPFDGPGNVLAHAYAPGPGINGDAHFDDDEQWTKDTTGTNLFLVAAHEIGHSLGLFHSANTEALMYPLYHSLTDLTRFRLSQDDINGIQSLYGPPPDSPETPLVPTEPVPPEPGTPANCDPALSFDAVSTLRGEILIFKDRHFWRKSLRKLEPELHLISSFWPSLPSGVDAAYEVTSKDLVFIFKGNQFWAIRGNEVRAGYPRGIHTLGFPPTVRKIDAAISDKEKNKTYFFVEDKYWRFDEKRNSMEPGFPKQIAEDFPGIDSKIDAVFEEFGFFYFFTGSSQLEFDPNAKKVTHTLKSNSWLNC
row,SMILES,IC50
1,CCCCCCC(N[C@@H](CCc1ccccc1)C(=O)N[C@@H](CCCN=C(N)N)C(=O)N[C@@H](CCCC)C(=O)OC)C(=O)O (stereo not given in full),900 nM
2,CCCCCCC(N[C@@H](CCc1ccccc1)C(=O)N[C@@H](CCCN=C(N)N)C(=O)N[C@@H](CC(C)C)C(=O)OC)C(=O)O (stereo not given in full),400 nM
3,CCCCCCC(N[C@@H](CCc1ccccc1)C(=O)N[C@@H](CCCN=C(N)N)C(=O)N[C@@H](CCC(N)=O)C(=O)OC)C(=O)O (stereo not given in full),900 nM
4,CCCCCCC(N[C@@H](CCc1ccccc1)C(=O)N[C@@H](CCCN=C(N)N)C(=O)N[C@@H](Cc1cc2ccccc2[nH]1)C(=O)OC)C(=O)O (stereo not given in full),900 nM
5,CCCCCCC(N[C@@H](CCc1ccccc1)C(=O)N[C@@H](CCCN=C(N)N)C(=O)N[C@@H](CCc1ccccc1)C(=O)OC)C(=O)O (stereo not given in full),800 nM
